Laboratory results as given in US10016382B2, “Method for decreasing skeletal muscle damage and/or oxidative stress in mammals” (LONZA INC., priority 2014, dated 2018).

Columns and labels:
Format in all cases: in vivo, dog
[1] = Food offered and food consumption (per day, per kg BW, per kg lean mass), Example 2 part one
Experimental: The performance dogs were weighed at the beginning of the study and at one week intervals until the end of part one. Feed consumption and refusals were determined daily by weighing and recording the amount offered or refused. The quantity of food provided to each dog on a daily basis was adjusted based on the goal of maintaining the dog's minimum body weight throughout the study. The consumption per kg of lean mass was determined by dividing the mean lean mass of each group into its mean daily food consumption value at the initial and then the final body scans.

[2] = tested on: Labrador Retrievers; experiment: Activity (APM, APM/kg) by Actical monitor and GPS collar, Example 2 part one; conditions: for APM / APM/kg: crossover L-carnitine dogs
Description: Both the L-carnitine and control performance dogs were put through a weekly running program consisting of two evenly distributed endurance runs. Groups ranging between 6 and 10 dogs were run together, including both treatments in each group. The endurance runs increased incrementally by 0.5 miles per week (5 miles/session increasing to 10 miles per session over an 11 week period). The dogs were allowed a 1 day rest between runs and a 3 day rest before a scheduled exercise distance increase. The dogs were put through maintenance runs of 5 miles twice in the 12th week and then 2 miles twice in the 13th week. All dogs had at least 4 days of rest prior to the final 15 miles run in the 14th week. The first exercise session during the week consisted only of endurance style running, while the second session included short 100 m sprints at each mile interval in order to incorporate measurable anaerobic exercise into the weekly regimen. The endurance runs were slightly slower to enhance fat oxidation and represent an exercise intensity equivalent to 50%-65% VO2 max. Each performance dog wore the Actical activity monitor and GPS tracking collar during the last 15 mile endurance run. The final run was conducted in a manner analogous to that of Example 1. All activity was accurately and precisely calculated using the GPS tracking monitors. Immediately following the 15 mile endurance run, each dog was placed in a kennel and evaluated for recovery time in body temperature (every 15 minutes for 2 hours) and heart rate (every 2 minutes for up to 20 minutes until basal beats per minute (BPM) was reached). Body temperature and heart rate were measured as described in Example 1.

[3] = tested on: Thiobarbituric acid reactive substances (TBARS); experiment: Serum TBARS, Example 2 part one; conditions: for TBARS level, serum: Ex.2 part one, 250 mg/d; for TBARS: serum
Experimental: Twenty-four hours after test dogs ran the last 15 mile endurance run, serum samples were taken to evaluate biomarkers for muscle damage and antioxidant status. Blood samples were taken 1) just prior to the beginning of the study; 2) 1 day prior to running the final 15 mile run on the 14th week; 3) 1 hour immediately following the 15 mile run; and 4) 24 hours following the final 15 mile run. After a blood sample was drawn, it was allowed to clot for 30 minutes at 25° C. before being centrifuged for 15 minutes at 2000 g at 4° C. Serum was aliquoted into 0.65 mL microcentrifuge tubes and stored at −80° C. until being assayed at the end of the study for creatine kinase, canine myoglobin, thiobarbituric acid reactive substances (TBARS), and total antioxidant capacity (TAC) using the commercially available kits described in Example 1.

[4] = Ex.2 part one, 250 mg/d, 14 week study
[5] = Ex.2 part one, 250 mg/d, week 1
[6] = Ex.2 part one, 250 mg/d, 19 L-carnitine dogs that were control dogs in Example 1
[7] = data collected in Example 1 (then control dogs)

C[N+](C)(C)C[C@H](O)CC(=O)[O-] [L-carnitine]
Mean Food Intake Over 14 wk Duration/Lean Mass ([1]; Change, F): −2.46 g/d/kg Lean Mass | Mean Food Intake Over 14 wk Duration/Lean Mass ([1]; Change, M): −1.98 g/d/kg Lean Mass | Overall mean amount of food offered per day [1, 4]: 677 g/day | Overall mean food intake per day [1, 4]: 574 g/day | Mean food intake per kg lean mass ([1]; Ex.2 part one, 250 mg/d, Final body composition scan): 24.02 g/d/kg LM | Mean food intake per kg lean mass ([1]; Ex.2 part one, 250 mg/d, Initial body composition scan): 26.24 g/d/kg LM | Change in mean food intake per kg lean mass ([1]; Ex.2 part one, 250 mg/d, final minus initial over 14 wks): −2.22 g/d/kg LM | Amount of food consumed [1, 5]: 618.25 g/day | Food consumption per kg body weight [1, 5]: 20.96 g/d/kg BW | Intake of kcals of ME [1, 5]: 83.83 kcal/d/kg BW | Amount of food consumed ([1]; Ex.2 part one, 250 mg/d, week 4): 629.43 g/day | Mean Food Intake Over 14 wk Duration/Lean Mass ([1]; Final, F): 27.46 g/d/kg Lean Mass | Mean Food Intake Over 14 wk Duration/Lean Mass ([1]; Final, M): 20.58 g/d/kg Lean Mass | Mean Food Intake Over 14 wk Duration/Lean Mass ([1]; Initial, F): 29.92 g/d/kg Lean Mass | Mean Food Intake Over 14 wk Duration/Lean Mass ([1]; Initial, M): 22.56 g/d/kg Lean Mass | Daily Food Intake ([1]; Week 1): 618.25 ± 22.33 g | Daily Food Intake (ME) ([1]; Week 1): 83.83 ± 1.85 kcal ME/d/kg BW | Daily Food Intake per kg BW ([1]; Week 1): 20.96 ± 0.46 g/d/kg BW | Daily Food Intake ([1]; Week 2): 608.79 ± 22.8 g | Daily Food Intake (ME) ([1]; Week 2): 85.21 ± 2.22 kcal ME/d/kg BW | Daily Food Intake per kg BW ([1]; Week 2): 21.3 ± 0.55 g/d/kg BW | Daily Food Intake ([1]; Week 3): 600.54 ± 19.89 g | Daily Food Intake (ME) ([1]; Week 3): 82.87 ± 2.34 kcal ME/d/kg BW | Daily Food Intake per kg BW ([1]; Week 3): 20.72 ± 0.58 g/d/kg BW | Daily Food Intake ([1]; Week 4): 629.43 ± 21.4 g | Daily Food Intake (ME) ([1]; Week 4): 86.54 ± 2.08 kcal ME/d/kg BW | Daily Food Intake per kg BW ([1]; Week 4): 21.64 ± 0.52 g/d/kg BW | Daily Food Intake ([1]; Week 5): 597.07 ± 18.65 g | Daily Food Intake (ME) ([1]; Week 5): 81.86 ± 1.82 kcal ME/d/kg BW | Daily Food Intake per kg BW ([1]; Week 5): 20.47 ± 0.45 g/d/kg BW | Daily Food Intake ([1]; Week 6): 579.11 ± 21.17 g | Daily Food Intake (ME) ([1]; Week 6): 78.87 ± 2.06 kcal ME/d/kg BW | Daily Food Intake per kg BW ([1]; Week 6): 19.72 ± 0.51 g/d/kg BW | Daily Food Intake ([1]; Week 7): 584.5 ± 18.91 g | Daily Food Intake (ME) ([1]; Week 7): 79.61 ± 1.97 kcal ME/d/kg BW | Daily Food Intake per kg BW ([1]; Week 7): 19.91 ± 0.49 g/d/kg BW | Daily Food Intake ([1]; Week 8): 547.14 ± 20.91 g | Daily Food Intake (ME) ([1]; Week 8): 74.21 ± 2.16 kcal ME/d/kg BW | Daily Food Intake per kg BW ([1]; Week 8): 18.55 ± 0.54 g/d/kg BW | Daily Food Intake ([1]; Week 9): 602.79 ± 23.4 g | Daily Food Intake (ME) ([1]; Week 9): 81.55 ± 2.2 kcal ME/d/kg BW | Daily Food Intake per kg BW ([1]; Week 9): 20.39 ± 0.55 g/d/kg BW | Daily Food Intake ([1]; Week 10): 580.04 ± 21.88 g | Daily Food Intake (ME) ([1]; Week 10): 78.76 ± 2.25 kcal ME/d/kg BW | Daily Food Intake per kg BW ([1]; Week 10): 19.69 ± 0.56 g/d/kg BW | Daily Food Intake ([1]; Week 11): 543.89 ± 19.79 g | Daily Food Intake (ME) ([1]; Week 11): 73.79 ± 2.09 kcal ME/d/kg BW | Daily Food Intake per kg BW ([1]; Week 11): 18.45 ± 0.52 g/d/kg BW | Daily Food Intake ([1]; Week 12): 493.68 ± 19.06 g | Daily Food Intake (ME) ([1]; Week 12): 66.64 ± 1.71 kcal ME/d/kg BW | Daily Food Intake per kg BW ([1]; Week 12): 16.66 ± 0.43 g/d/kg BW | Daily Food Intake ([1]; Week 13): 511.82 ± 22.64 g | Daily Food Intake (ME) ([1]; Week 13): 68.71 ± 2.06 kcal ME/d/kg BW | Daily Food Intake per kg BW ([1]; Week 13): 17.18 ± 0.51 g/d/kg BW | Daily Food Intake ([1]; Week 14): 543.5 ± 26.43 g | Daily Food Intake (ME) ([1]; Week 14): 73.21 ± 2.75 kcal ME/d/kg BW | Daily Food Intake per kg BW ([1]; Week 14): 18.3 ± 0.69 g/d/kg BW | Crossover activity gain, APM [2, 6]: 27,697 | Crossover activity gain, APM/kg [2, 6]: 975 | APM ([2]; Example 2 part one, 250 mg/d): 63,272 | APM/kg ([2]; Example 2 part one, 250 mg/d): 2274 | APM [2, 7]: 37,621 | APM/kg [2, 7]: 1363 | TBARS level, serum ([3]; post-run 1 hr, MDA): 16.45 µM | TBARS level, serum ([3]; prior to the 15 mile endurance run): 15.36 μM malondialdehyde (MDA) | TBARS ([3]; FEMALES, Baseline): 13.03 ± 1.29 μM MDA | TBARS ([3]; FEMALES, Post-Run 1 Hr): 17.44 ± 2.26 μM MDA | TBARS ([3]; FEMALES, Post-Run 24 Hr): 26.01 ± 3.09 μM MDA | TBARS ([3]; FEMALES, Pre-Run): 16.68 ± 2.16 μM MDA | TBARS ([3]; MALES, Baseline): 14.51 ± 1.38 μM MDA | TBARS ([3]; MALES, Post-Run 1 Hr): 15.46 ± 1.79 μM MDA | TBARS ([3]; MALES, Post-Run 24 Hr): 19.62 ± 2.38 μM MDA | TBARS ([3]; MALES, Pre-Run): 14.03 ± 2.24 μM MDA | TBARS ([3]; Whole Groups, Baseline): 13.77 ± 0.94 μM MDA | TBARS ([3]; Whole Groups, Post-Run 1 Hr, Post-Run 1 Hr): 16.45 ± 1.43 μM MDA | TBARS ([3]; Whole Groups, Post-Run 24 Hr, Post-Run 24 Hr): 22.81 ± 2.01 μM MDA | TBARS ([3]; Whole Groups, Pre-Run): 15.36 ± 1.55 μM MDA
